How the values were obtained:
Assay in all cases: CellTiter-Glo luminescent cell viability assay (in vitro cytotoxicity)
Assay type in all cases: cell-based
Details in all cases: […] to 120 nM paclitaxel, 48, 72 and 96 hours
[1] = test system: MCF-7 cells
Protocol: (§1) The concentrations tested range from 2.5 nM to 120 nM. The experiment was carried out as follows: Cultured cells (MCF-7, SK-OV 3, and MDA-MB-231) were seeded in 96-well plates at a seeding density of 6000 cells/well/0.1 mL medium and allowed to attach for 24 hours. […] To allow direct comparison, the amount of paclitaxel-loaded nanoparticles containing the same amount of paclitaxel as the paclitaxel in solution was used. Control cells were treated with medium only, medium with 0.05% DMSO, and medium containing blank nanoparticles at the highest concentration tested.
(§2) Cell viability was assessed at 48-, 72- and 96-hours post treatment respectively. Briefly, at the predetermined time intervals the treatment was washed off and fresh medium added. An amount of the CellTiter®-Glo reagent equal to the amount of medium was added. The plate was mixed by shaking on an orbital shaker for 2 minutes to induce cell lysis and luminescence was measured after 10 minutes using the FLUOstar OPTIMA plate reader (BMG LABTECH). In this assay, the number of viable cells in culture is determined by quantification of the ATP present which is an index of the presence of metabolically active cells (CellTiter®-Glo Luminescent Cell Viability Assay Technical Bulletin, TB 288; Promega). Results are presented as percent viability normalized to controls and represent the mean±S.D. of 4 replicates per concentration tested, as shown in FIG. 9. The results were analyzed by using Student's t-test using the SPSS® statistical software. Differences were considered significant at p<0.05.

[2] = test system: SK-OV-3 cells
Protocol: as §1, §2

[3] = test system: MDA-MB-231 cells
Protocol: as §1, §2

Measured: cell growth inhibition (cell viability)

CC(=O)O[C@H]1C(=O)[C@@]2(C)[C@H]([C@H](OC(=O)c3ccccc3)[C@]3(O)C[C@H](OC(=O)[C@H](O)[C@@H](NC(=O)c4ccccc4)c4ccccc4)C(C)=C1C3(C)C)[C@]1(OC(C)=O)CO[C@@H]1C[C@@H]2O [paclitaxel solution, paclitaxel]
inhibited cell growth: all assays above
